For assay [1], the target named is T1, DYRK1A (Homo sapiens, UniProt Q13627).
T1 construct: kinase domain, residues 127–485
The experiment in a line: biochemical. Set-up: nanoDSF thermal shift, Prometheus NT.48, 5 uM protein, ligand-induced melting temperature change versus buffer or DMSO control. The note with it: for ΔTm at 1 µM / ΔTm at 10 µM / ΔTm at 100 µM: read-out: ΔTm to control (°C); for ΔTm to control (°C): binder. The method, then: (§1) Nano-differential scanning fluorimetry measurements were performed for the determination of thermal protein stability using a Prometheus NT.48 (NanoTemper) device operating at the two wavelengths λ = 330 and 350 nm. […] The thermal stability was monitored from 20 to 70 °C at a heating rate of 1.5 °C/min using the PR.ThermControl software. […] Kinases were immobilized to the chip surface by amine coupling. […] Dissociation constants were determined based on fits applying a 1:1 interaction model. b Thermal protein stability measurements were performed using the NanoDSF technique. […] For raw data see Supplementary Table 3. Source data are provided as a Source Data file.

Assay [2] deals with T2, HIPK3 (Homo sapiens, UniProt Q9H422).
T2 construct: kinase domain, residues 159–562
The experiment in a line: radioactive in vitro kinase assay, His-c-Myc substrate. It is filed as biochemical.

In assay [3] the target is T2, HIPK3. The experiment in a line: ([…] Å) and SPR; kinase assay IC50 […]. Type of assay: binding.
The target in assay [4] is T3, Cdk9 (Homo sapiens, UniProt P50750).
T3 construct: full-length Cdk9 (residues 1–372) with Cyclin T1 (residues 1–272); with Cyclin T1
The experiment in a line: biochemical. Set-up: nanoDSF thermal shift, Prometheus NT.48, 5 uM protein, ligand-induced melting temperature change versus buffer or DMSO control. The note with it: read-out: ΔTm to control (°C). As for the experimental part:
as §1

Assay [5] deals with T4, HIPK2 (Homo sapiens, UniProt Q9H2X6).
T4 construct: residues 160–563
The experiment in a line: biochemical. Set-up: nanoDSF thermal shift, Prometheus NT.48, 5 uM protein, ligand-induced melting temperature change versus buffer or DMSO control. The note with it: read-out: ΔTm to control (°C). As for the experimental part:
as §1

In assay [6] the target is T5, HIPK1 (Homo sapiens, UniProt Q86Z02).
T5 construct: residues 154-554
The assay is described as follows: biochemical. Set-up: nanoDSF thermal shift, Prometheus NT.48, 5 uM protein, ligand-induced melting temperature change versus buffer or DMSO control. The note with it: read-out: ΔTm to control (°C). As for the experimental part:
as §1

The target of assay [7] is T6, Cdk4 (Homo sapiens, UniProt P11802).
T6 construct: full-length Cdk4 (residues 1–303) with Cyclin D3 (residues 1–292); with Cyclin D3
The assay is described as follows: biochemical. Set-up: nanoDSF thermal shift, Prometheus NT.48, 5 uM protein, ligand-induced melting temperature change versus buffer or DMSO control. The note with it: read-out: ΔTm to control (°C). As for the experimental part:
as §1

Assay [8] has as its target T2, HIPK3. The experiment in a line: biochemical. More on the design: nanoDSF thermal shift, Prometheus NT.48, 5 uM protein, ligand-induced melting temperature change versus buffer or DMSO control. The note with it: read-out: ΔTm to control (°C). The method, then: as §1
For assay [9], the target named is T5, HIPK1. The experiment in a line: radioactive in vitro kinase assay; nanoDSF shift +[…] °C. Type of assay: biochemical. (In general: Differential scanning fluorimetry follows unfolding on heating by fluorescence.)
For assay [10], the target named is T4, HIPK2. The assay is described as follows: SPR single-cycle kinetics; nanoDSF; kinase assay IC50 […]. It is filed as binding.

Broadly, the ΔTm is the change in melting temperature against a reference sample. A word on the IC50: it is the concentration that inhibits the measured activity by half. A word on the Kd: it is the constant that tells how readily two partners part at equilibrium.

Molecules are shown by their SMILES. Like-named read-outs stand apart in the source and are kept apart here.

T2 sequence (Q9H422 159-562): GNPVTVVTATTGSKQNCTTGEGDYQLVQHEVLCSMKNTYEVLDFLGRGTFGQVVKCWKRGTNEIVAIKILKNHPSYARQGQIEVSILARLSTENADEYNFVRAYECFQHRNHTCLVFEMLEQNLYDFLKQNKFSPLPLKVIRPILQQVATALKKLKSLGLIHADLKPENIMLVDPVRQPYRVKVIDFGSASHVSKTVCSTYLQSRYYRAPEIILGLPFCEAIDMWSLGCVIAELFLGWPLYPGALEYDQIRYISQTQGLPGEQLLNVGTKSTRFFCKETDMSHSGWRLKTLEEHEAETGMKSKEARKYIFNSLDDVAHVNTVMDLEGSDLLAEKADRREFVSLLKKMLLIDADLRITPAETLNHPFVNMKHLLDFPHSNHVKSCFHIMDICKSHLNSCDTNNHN
T5 sequence (Q86Z02 154-554): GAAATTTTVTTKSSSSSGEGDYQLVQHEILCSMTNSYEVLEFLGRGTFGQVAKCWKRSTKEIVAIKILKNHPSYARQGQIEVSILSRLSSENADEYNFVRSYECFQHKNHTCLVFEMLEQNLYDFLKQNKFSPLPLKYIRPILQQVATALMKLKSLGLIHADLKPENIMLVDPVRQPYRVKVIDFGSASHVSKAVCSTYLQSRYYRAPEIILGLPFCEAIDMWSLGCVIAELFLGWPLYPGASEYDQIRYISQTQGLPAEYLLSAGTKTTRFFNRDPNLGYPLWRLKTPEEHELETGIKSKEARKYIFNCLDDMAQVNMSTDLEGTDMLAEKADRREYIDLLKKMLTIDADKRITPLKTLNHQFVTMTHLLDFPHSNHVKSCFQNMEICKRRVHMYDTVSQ
T4 sequence (Q9H2X6 160-563): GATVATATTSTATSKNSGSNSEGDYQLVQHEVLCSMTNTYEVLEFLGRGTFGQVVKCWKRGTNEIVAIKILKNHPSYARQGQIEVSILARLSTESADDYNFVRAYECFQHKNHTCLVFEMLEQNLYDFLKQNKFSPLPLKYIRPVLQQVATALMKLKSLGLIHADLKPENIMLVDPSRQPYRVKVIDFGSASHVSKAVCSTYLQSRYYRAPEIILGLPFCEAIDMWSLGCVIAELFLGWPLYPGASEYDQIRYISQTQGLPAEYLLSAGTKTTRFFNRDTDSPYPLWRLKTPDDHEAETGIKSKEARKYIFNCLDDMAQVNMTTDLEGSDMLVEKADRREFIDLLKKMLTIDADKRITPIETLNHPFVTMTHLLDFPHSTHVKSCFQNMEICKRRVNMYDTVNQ
T6 sequence (P11802 whole entry, the tested form may be a part): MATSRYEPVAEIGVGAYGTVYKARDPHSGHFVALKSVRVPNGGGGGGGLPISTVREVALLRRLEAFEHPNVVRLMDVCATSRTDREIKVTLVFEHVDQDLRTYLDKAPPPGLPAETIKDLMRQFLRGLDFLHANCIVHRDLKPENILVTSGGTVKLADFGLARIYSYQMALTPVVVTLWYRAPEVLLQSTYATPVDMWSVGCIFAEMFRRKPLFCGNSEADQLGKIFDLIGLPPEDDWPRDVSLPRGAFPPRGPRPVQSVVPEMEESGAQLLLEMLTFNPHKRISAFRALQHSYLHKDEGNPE
T6 sequence (P30281 whole entry partner, the tested form may be a part): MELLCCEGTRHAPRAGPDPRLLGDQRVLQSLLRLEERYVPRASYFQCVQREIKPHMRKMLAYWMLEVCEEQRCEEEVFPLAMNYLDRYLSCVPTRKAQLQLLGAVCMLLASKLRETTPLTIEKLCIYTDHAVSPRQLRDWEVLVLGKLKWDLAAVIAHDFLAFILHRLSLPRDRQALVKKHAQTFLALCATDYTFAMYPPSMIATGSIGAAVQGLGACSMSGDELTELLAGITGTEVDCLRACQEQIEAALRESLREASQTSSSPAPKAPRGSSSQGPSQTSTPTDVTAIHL
T3 sequence (P50750 whole entry, the tested form may be a part): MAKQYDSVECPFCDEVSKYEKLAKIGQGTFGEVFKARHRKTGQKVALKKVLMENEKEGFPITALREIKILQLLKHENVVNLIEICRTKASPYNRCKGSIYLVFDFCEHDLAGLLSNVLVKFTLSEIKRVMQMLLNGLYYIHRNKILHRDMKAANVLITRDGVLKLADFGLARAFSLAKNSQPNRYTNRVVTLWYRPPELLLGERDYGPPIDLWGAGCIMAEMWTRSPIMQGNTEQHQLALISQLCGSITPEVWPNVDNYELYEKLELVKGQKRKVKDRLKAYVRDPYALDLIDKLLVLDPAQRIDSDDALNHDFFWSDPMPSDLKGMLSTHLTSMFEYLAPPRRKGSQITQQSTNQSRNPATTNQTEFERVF
T3 sequence (O60563 1-272 partner): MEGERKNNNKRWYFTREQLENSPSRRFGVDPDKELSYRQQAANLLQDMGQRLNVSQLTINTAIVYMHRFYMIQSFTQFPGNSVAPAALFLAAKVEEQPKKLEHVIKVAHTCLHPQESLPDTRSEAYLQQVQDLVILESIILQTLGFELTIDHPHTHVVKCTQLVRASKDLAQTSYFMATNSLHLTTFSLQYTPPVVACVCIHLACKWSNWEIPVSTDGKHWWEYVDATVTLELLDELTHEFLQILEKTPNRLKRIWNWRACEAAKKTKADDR

Regarding `Nc1ncnc2c1ncn2[C@@H]1O[C@H](COP(=O)(O)OP(=O)(O)O)[C@@H](O)[C@H]1O` [ADP], in assay [1], the ΔTm at 1 µM is -0.1 °C, the ΔTm at 10 µM was determined as 0 °C and the shift in melting temperature (ΔTm) at 100 µM is -0.1 °C.

For `Nc1ncnc2c1ncn2[C@@H]1O[C@H](COP(=O)(O)OP(=O)(O)OP(=O)(O)O)[C@@H](O)[C@H]1O` [ATP], the “ΔTm to control (°C)” value is -0.2 °C in [1] (1 uM), “+0.1 °C” in assay [1] (10 uM) and 0.0 °C in assay [1] (100 uM).

`O=C1NC(=O)/C(=C/c2ccc3nccc(-c4ccncc4)c3c2)S1` [GSK1059615]: in [2], the IC50 was 1080 nM.

For the molecule `CN(C)C[C@H]1CC[C@H](N2C(=O)NCc3cnc4ccc(-c5cc(Cl)c(O)c(Cl)c5)cc4c32)CC1` [HTH-01-091], in assay [2] (read-out: IC50), the 50% inhibitory concentration (IC50) was 1600 nM.

On to `CCN1CCN(Cc2ccc(Nc3ncc(F)c(-c4cc(F)c5nc(C)n(C(C)C)c5c4)n3)nc2)CC1` [abemaciclib], for which the dissociation constant Kd in assay [3] and in assay [10] was 0.8 nM in each case. The ΔTm at 1 µM in assay [1] came to 0.6 °C; in assay [4] it was 0.6 °C; in assay [5] it was 1.5 °C; in assay [6], 0.4 °C; in assay [7], 4.1 °C; in assay [8], 0.2 °C. For the same molecule, the ΔTm at 10 µM in assay [1] was determined as 3.1 °C; in assay [4], 2.4 °C; in [5] it was 4.7 °C; in [6], 6.4 °C; in assay [8], 5.3 °C. The ΔTm at 100 µM in assay [1] turned out to be 5.2 °C; in [5], 7.2 °C; in assay [6], 8.7 °C; in assay [7] it was 7.9 °C; in assay [8], 7.4 °C. For the same molecule, the IC50 in assay [9] was found to be 4530 nM.

Source of the values: PMC8595372 (Nature Communications, 2021).
